Literature values, collected in patent US7705017B2, “Compounds for treatment of neurodegenerative diseases” (En Vivo Pharmaceuticals, Inc., priority 2004, dated 2010).

Columns and labels:
[1] = system: Huntington's disease in a mouse model; conditions: orally administered
[2] = system: Histone Deacetylase-Like Protein (HDLP); conditions: HDLP deacetylates histones in vitro

| Compound | motor impairment in mice [1] | inhibition of HDAC-like protein (HDLP) [2] |
| --- | --- | --- |
| O=C(CCCCCCC(=O)Nc1ccccc1)NO [SAHA, suberoylanilide hydroxamic acid] | dramatically improved the motor impairment | – |
| CC(/C=C/C(=O)NO)=C\[C@@H](C)C(=O)c1ccc(N(C)C)cc1 [TSA, trichostatin A] | – | inhibited |
